Source: patent publication US9895349B2, “N-phenyl-carboxamide derivatives and the use thereof as medicaments for the treatment of hepatitis B” (priority 2013, dated 2018)

Legend:
HBV [1] = assay: Anti-HBV activity, HepG2.117 inducibly HBV producing cell line (Tet-off), intracellular HBV DNA by realtime PCR; format: cell-based, Hepatitis B virus (HBV); settings: HepG2.117 cells, 3 days of treatment
[2] = Cytotoxicity in HepG2 cells, Resazurin assay; settings: human
HBV [3] = assay: Anti-HBV activity, HepG2.2.15 stable transfected cell line, HBV DNA from secreted virions by realtime PCR; format: cell-based, Hepatitis B virus (HBV); settings: HepG2.2.15 cells, 6 days of treatment
[4] = Hepatitis B virus, HepG2.117, 72 h
[5] = Hepatitis B virus, HepG2.2.15, 144 h

SMILES	EC50 (HBV [1]; [4]) [nM]	CC50 at 4 days [2] [nM]	EC50 (HBV [3]; [5]) [nM]	EC50 (HBV [1]) [nM]	EC50 (HBV [3]) [nM]
COC(=O)NC[C@@H](C)NS(=O)(=O)N1CC[C@H](C(=O)Nc2ccc(F)c(C)c2)C1 [Compound 51, methyl N-[(2R)-2-[[(3S)-3-[(4-fluoro-3-methyl-phenyl)carbamoyl]pyrrolidin-1-yl]sulfonylamino]propyl]carbamate]	57	> 25000	150	–	–
Cc1cc(NC(=O)C2CN(S(=O)(=O)NC(C)C)C3CC23)ccc1F (single isomer, unassigned) [Compound 36a, N-(4-fluoro-3-methyl-phenyl)-2-(isopropylsulfamoyl)-2-azabicyclo[3.1.0]hexane-4-carboxamide]	–	> 25000	–	2650	2390
Cc1cc(NC(=O)[C@H]2CCN(C(=O)OCC(C)C)C2)ccc1F [Compound 26, isobutyl (3S)-3-[(4-fluoro-3-methyl-phenyl)carbamoyl]pyrrolidine-1-carboxylate]	410	> 25000	4400	–	–
Cc1cc(NC(=O)[C@H]2CCN(S(=O)(=O)NC(C)CC#N)C2)ccc1F (stereo partly drawn) [Compound 40, (3S)-1-[(2-cyano-1-methyl-ethyl)sulfamoyl]-N-(4-fluoro-3-methyl-phenyl)pyrrolidine-3-carboxamide]	120	> 25000	290	–	–
Cc1cc(NC(=O)[C@H]2CCN(S(=O)(=O)CC3CC3)C2)ccc1F [Compound 8, (3S)-1-(cyclopropylmethylsulfonyl)-N-(4-fluoro-3-methyl-phenyl)pyrrolidine-3-carboxamide]	330	> 25000	580	–	–
Cc1cc(NC(=O)[C@H]2CCN(S(=O)(=O)NC3(C)COC3)C2)ccc1F [Compound 34, (3S)—N-(4-fluoro-3-methyl-phenyl)-1-[(3-methyloxetan-3-yl)sulfamoyl]pyrrolidine-3-carboxamide]	110	> 25000	110	–	–
Cc1cc(NC(=O)[C@H]2CCN(S(=O)(=O)NC3CC(=O)N(C)C3)C2)ccc1F (stereo partly drawn) [Compound 50, (3S)—N-(4-fluoro-3-methyl-phenyl)-1-[(1-methyl-5-oxo-pyrrolidin-3-yl)sulfamoyl]pyrrolidine-3-carboxamide]	460	> 25000	350	–	–
CCC1CC1S(=O)(=O)N1CC[C@H](C(=O)Nc2ccc(F)c(C)c2)C1 (stereo partly drawn) [Compound 24, (3S)-1-(2-ethylcyclopropyl)sulfonyl-N-(4-fluoro-3-methyl-phenyl)pyrrolidine-3-carboxamide]	330	> 25000	500	–	–
Cc1cc(NC(=O)C23CC2CN(S(=O)(=O)N[C@H]2CCOC2)C3)ccc1F (stereo partly drawn) [Compound 43, N-(4-fluoro-3-methyl-phenyl)-3-[[(3S)-tetrahydrofuran-3-yl]sulfamoyl]-3-azabicyclo[3.1.0]hexane-1-carboxamide]	850	> 25000	580	–	–
CCCS(=O)(=O)N1CC[C@H](C(=O)Nc2ccc(F)c(C)c2)C1 [Compound 6, (3S)—N-(4-fluoro-3-methyl-phenyl)-1-propylsulfonyl-pyrrolidine-3-carboxamide]	620	> 25000	1900	–	–
Cc1cc(NC(=O)[C@H]2CCN(S(=O)(=O)NC3(CCO)COC3)C2)ccc1F [Compound 47, (3S)—N-(4-fluoro-3-methyl-phenyl)-1-[[3-(2-hydroxyethyl)oxetan-3-yl]sulfamoyl]pyrrolidine-3-carboxamide]	91	> 25000	65	–	–
Cc1cc(NC(=O)[C@H]2CCN(S(=O)(=O)NC(C)C)C2)ccc1F [Compound 32, (3S)—N-(4-fluoro-3-methyl-phenyl)-1-(isopropylsulfamoyl)pyrrolidine-3-carboxamide]	120	> 25000	180	–	–
Cc1cc(NC(=O)[C@H]2CCN(S(=O)(=O)C3CCOCC3)C2)ccc1F [Compound 9, (3S)—N-(4-fluoro-3-methyl-phenyl)-1-tetrahydropyran-4-ylsulfonyl-pyrrolidine-3-carboxamide]	950	> 25000	1400	–	–
Cc1cc(NC(=O)[C@@H]2CN(S(=O)(=O)NC(C)C)C[C@H]2C)ccc1F (relative stereo) [Compound 41, trans-N-(4-fluoro-3-methyl-phenyl)-1-(isopropylsulfamoyl)-4-methyl-pyrrolidine-3-carboxamide]	420	> 25000	530	–	–
Cc1cc(NC(=O)[C@H]2CCN(S(=O)(=O)N[C@H]3CCOC3)C2)ccc1F [Compound 33, (3S)—N-(4-fluoro-3-methyl-phenyl)-1-[[(3S)-tetrahydrofuran-3-yl]sulfamoyl]pyrrolidine-3-carboxamide]	75	> 25000	150	–	–
Cc1cc(NC(=O)C2(F)CCN(S(=O)(=O)N[C@H]3CCOC3)C2)ccc1F (single isomer, unassigned) [Compound 42a]	–	> 25000	> 5000	> 5000	–

SMILES	EC50 (HBV [1]; [4]) [nM]	CC50 at 4 days [2] [nM]	EC50 (HBV [3]; [5]) [nM]	EC50 (HBV [1]) [nM]	EC50 (HBV [3]) [nM]
Cc1cc(NC(=O)[C@H]2CCN(S(=O)(=O)C3CCCC3)C2)ccc1F [Compound 10, (3S)-1-cyclopentylsulfonyl-N-(4-fluoro-3-methyl-phenyl)pyrrolidine-3-carboxamide]	760	22900	4300	–	–
Cc1cc(NC(=O)[C@H]2CCN(S(=O)(=O)N[C@H](C)CO)C2)ccc1F [Compound 39, (3S)—N-(4-fluoro-3-methyl-phenyl)-1-[[(1R)-2-hydroxy-1-methyl-ethyl]sulfamoyl]pyrrolidine-3-carboxamide]	150	> 25000	–	–	–
Cc1cc(NC(=O)C2(F)CCN(S(=O)(=O)NC(C)C)C2)ccc1F (racemic) [Compound 35a, 3-fluoro-N-(4-fluoro-3-methyl-phenyl)-1-(isopropylsulfamoyl)pyrrolidine-3-carboxamide]	–	> 25000	–	228	563
Cc1cc(NC(=O)[C@H]2CCN(S(=O)(=O)NC3CCN(C)C3=O)C2)ccc1F (stereo partly drawn) [Compound 48, (3S)—N-(4-fluoro-3-methyl-phenyl)-1-[(1-methyl-2-oxo-pyrrolidin-3-yl)sulfamoyl]pyrrolidine-3-carboxamide]	570	> 25000	1370	–	–
Cc1cc(NC(=O)[C@H]2CCN(S(=O)(=O)NCC(C)C)C2)ccc1F [Compound 31, (3S)—N-(4-fluoro-3-methyl-phenyl)-1-(isobutylsulfamoyl)pyrrolidine-3-carboxamide]	470	> 25000	450	–	–
Cc1cc(NC(=O)[C@@]23C[C@@H]2CN(S(=O)(=O)CC(C)C)C3)ccc1F [Compound 27, (1S,5S)—N-(4-fluoro-3-methyl-phenyl)-3-isobutylsulfonyl-3-azabicyclo[3.1.0]hexane-1-carboxamide]	2000	> 25000	2800	–	–
Cc1cc(NC(=O)C2(C)CCN(S(=O)(=O)CC(C)C)C2)ccc1F (racemic) [Compound 29, N-(4-fluoro-3-methyl-phenyl)-1-isobutylsulfonyl-3-methyl-pyrrolidine-3-carboxamide]	–	> 25000	13700	18900	–
Cc1cc(NC(=O)C2CN(S(=O)(=O)CC(C)C)c3ccccc32)ccc1F (centres unmarked) [Compound 28, N-(4-fluoro-3-methyl-phenyl)-1-isobutylsulfonyl-indoline-3-carboxamide]	3900	> 25000	2000	–	–
Cc1cc(NC(=O)C2CCN(S(=O)(=O)CC(C)C)C2)ccc1F (centres unmarked) [Compound 1, N-(4-fluoro-3-methyl-phenyl)-1-isobutylsulfonyl-pyrrolidine-3-carboxamide]	720	> 25000	940	–	–
Cc1cc(NC(=O)[C@@H]2CCN(S(=O)(=O)CC(C)C)C2)ccc1F [Compound 3, (3R)—N-(4-fluoro-3-methyl-phenyl)-1-isobutylsulfonyl-pyrrolidine-3-carboxamide]	1490	> 25000	> 25000	–	–
Cc1cc(NC(=O)[C@H]2CCN(S(=O)(=O)NC(C)CNC(=O)OC(C)(C)C)C2)ccc1F (stereo partly drawn) [Compound 38, tert-butyl N-[2-[[(3S)-3-[(4-fluoro-3-methyl-phenyl)carbamoyl]pyrrolidin-1-yl]sulfonylamino]propyl]carbamate]	2070	> 25000	3650	–	–
Cc1cc(NC(=O)[C@H]2CCN(S(=O)(=O)N3CC4(COC4)C3)C2)ccc1F [Compound 49, (3S)—N-(4-fluoro-3-methyl-phenyl)-1-(6-oxa-2-azaspiro[3.3]heptan-2-ylsulfonyl)pyrrolidine-3-carboxamide]	950	> 25000	1490	–	–
CC1(NS(=O)(=O)N2CC[C@H](C(=O)Nc3ccc(F)c(F)c3)C2)COC1 [Compound 44, (3S)—N-(3,4-difluorophenyl)-1-[(3-methyloxetan-3-yl)sulfamoyl]pyrrolidine-3-carboxamide]	420	> 25000	610	–	–
CCC(C)S(=O)(=O)N1CC[C@H](C(=O)Nc2ccc(F)c(C)c2)C1 (stereo partly drawn) [Compound 25, (3S)—N-(4-fluoro-3-methyl-phenyl)-1-sec-butylsulfonyl-pyrrolidine-3-carboxamide]	430	> 25000	5500	–	–
CC[C@@H](C)NS(=O)(=O)N1CC[C@H](C(=O)Nc2ccc(F)c(F)c2)C1 [Compound 45, (3S)—N-(3,4-difluorophenyl)-1-[[(1R)-1-methylpropyl]sulfamoyl]pyrrolidine-3-carboxamide]	540	> 25000	3250	–	–
